molecular target: T1, human GPBAR1 receptor (Homo sapiens, UniProt Q8TDU6); assay: functional cAMP assay in CHO-dhfr(minus) cells expressing human GPBAR1 receptors; format: cell-based; details: cAMP increase (TR-FRET) in CHO-dhfr(minus) cells expressing human GPBAR1; compounds incubated 30 min at 30° C.
T1 construct: expressed in transfected cells
T1 sequence (Q8TDU6 1-330): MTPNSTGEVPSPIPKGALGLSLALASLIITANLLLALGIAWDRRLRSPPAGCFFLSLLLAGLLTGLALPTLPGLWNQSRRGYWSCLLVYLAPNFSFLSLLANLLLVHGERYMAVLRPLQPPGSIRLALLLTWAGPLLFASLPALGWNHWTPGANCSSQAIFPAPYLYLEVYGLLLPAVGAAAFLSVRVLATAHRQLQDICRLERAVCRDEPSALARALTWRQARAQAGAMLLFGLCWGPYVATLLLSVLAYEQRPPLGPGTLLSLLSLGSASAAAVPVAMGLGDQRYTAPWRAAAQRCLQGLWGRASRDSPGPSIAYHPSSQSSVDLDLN
Description: The final clone was verified by DNA sequence analysis. The plasmid was transfected into CHO cells deficient in dihydrofolate reductase activity (CHO-dhfr-) using Lipofectamine plus (Invitrogen). Clones were isolated in limited dilution conditions and identified by activities in the cAMP assay using lithocholic acid as agonist.
The growth medium was exchanged with Krebs Ringer Bicarbonate buffer with 1 mM IBMX and incubated at 30° C. for 30 mM. Compounds were added to a final assay volume of 100 μl and incubated for 30 min at 30° C. […] The time-resolved energy transfer is measured by a TRF reader (Evotec Technologies GmbH, Hamburg Germany), equipped with a ND:YAG laser as excitation source. The plate is measured twice with the excitation at 355 nm and at the emission with a delay of 100 ns and a gate of 100 ns, total exposure time 10s at 730 (bandwith 30 nm) or 645 nm (bandwith 75 nm), respectively.
EC50 values were determined using Activity Base analysis (ID Business Solution, Limited). […] Specificity for GPBAR1 was tested in non-transfected CHO cells in the same assay as above.

Row | SMILES | EC50 [µM]
1 | Cc1ccc(Oc2ncccc2C(=O)N2CCCc3ccccc32)cc1Cl [Example 9, [2-(3-Chloro-4-methyl-phenoxy)-pyridin-3-yl]-(3,4-dihydro-2H-quinolin-1-yl)-methanone] | 1.01
2 | O=C(c1ccncc1Oc1ccc(Cl)cc1Cl)N1CCCc2ccc(F)cc21 [Example 96, [3-(2,4-Dichloro-phenoxy)-pyridin-4-yl]-(7-fluoro-3,4-dihydro-2H-quinolin-1-yl)-methanone] | 0.328
3 | O=C(c1ccncc1Oc1ccc(F)c(Cl)c1)N1CCCc2ccc(F)cc21 [Example 103, [3-(3-Chloro-4-fluoro-phenoxy)-pyridin-4-yl]-(7-fluoro-3,4-dihydro-2H-quinolin-1-yl)-methanone] | 0.299
4 | CN(C(=O)c1cccnc1Oc1cc(Cl)ccc1Cl)c1cc(Cl)ccc1Cl [Example 135, 2-(2,5-Dichloro-phenoxy)-N-(2,5-dichloro-phenyl)-N-methyl-nicotinamide] | 0.473
5 | O=C(c1ccccc1)c1cccc(Oc2ncccc2C(=O)N2CCCc3ccccc32)c1 [Example 15, [2-(3-Benzoyl-phenoxy)-pyridin-3-yl]-(3,4-dihydro-2H-quinolin-1-yl)-methanone] | 1.69
6 | O=C(O)c1ccc(C#Cc2cc(Cl)c(Oc3ncccc3C(=O)N3CCN(C4CC4)c4ccccc43)cc2Cl)cc1Cl [Example 168, 2-Chloro-4-{2,5-dichloro-4-[3-(4-cyclopropyl-3,4-dihydro-2H-quinoxaline-1-carbonyl)-pyridin-2-yloxy]-phenylethynyl}-benzoic acid] | 1.44
7 | CN(C(=O)c1cc(F)ccc1Oc1cc(Cl)ccc1Cl)c1ccccc1 [Example 118, 2-(2,5-Dichloro-phenoxy)-5-fluoro-N-methyl-N-phenyl-benzamide] | 0.771
8 | O=C(c1cccnc1Oc1cc(Cl)ccc1Cl)N1CCN(CC2CCC2)c2ccccc21 [Example 139, (4-Cyclobutylmethyl-3,4-dihydro-2H-quinoxalin-1-yl)-[2-(2,5-dichloro-phenoxy)-pyridin-3-yl]-methasone] | 0.926
9 | CC1Cc2ccccc2N1C(=O)c1ccccc1Oc1cc(Cl)ccc1Cl (stereo not drawn) [Example 112, [2-(2,5-Dichloro-phenoxy)-phenyl]-(2-methyl-2,3-dihydro-indol-1-yl)-methanone] | 1.71
10 | O=C1CCCN(C(=O)c2cc(F)cnc2Oc2cc(Cl)ccc2Cl)c2ccccc21 [Example 82, 1-[2-(2,5-Dichloro-phenoxy)-5-fluoro-pyridine-3-carbonyl]-1,2,3,4-tetrahydro-benzo[b]azepin-5-one] | 1.27
11 | CN(C(=O)c1cccnc1Oc1cc(Cl)ccc1Cl)c1ccccc1N [Example 134, N-(2-Amino-phenyl)-2-(2,5-dichloro-phenoxy)-N-methyl-nicotinamide] | 1.65
12 | CCOC(=O)CCN1CCN(C(=O)c2cc(F)cnc2Oc2cc(Cl)ccc2Cl)c2ccccc21 [Example 156, 3-{4-[2-(2,5-Dichloro-phenoxy)-5-fluoro-pyridine-3-carbonyl]-3,4-dihydro-2H-quinoxalin-1-yl}-propionic acid ethyl ester] | 0.841
13 | CN(C(=O)c1ccncc1Oc1ccc(Cl)cc1Cl)c1ccccc1Cl [Example 100, N-(2-Chloro-phenyl)-3-(2,4-dichloro-phenoxy)-N-methyl-isonicotinamide] | 1.05
14 | CCOC(=O)CCCCN1CCN(C(=O)c2cc(F)cnc2Oc2cc(Cl)ccc2Cl)c2ccccc21 [Example 159, 5-{4-[2-(2,5-Dichloro-phenoxy)-5-fluoro-pyridine-3-carbonyl]-3,4-dihydro-2H-quinoxalin-1-yl}-pentanoic acid ethyl ester] | 0.395
15 | COc1ccncc1N(C)C(=O)c1cccnc1Oc1cc(Cl)ccc1Cl [Example 75, 2-(2,5-Dichloro-phenoxy)-N-(4-methoxy-pyridin-3-yl)-N-methyl-nicotinamide] | 1.58
16 | O=C(c1cccnc1Oc1cccc(C(F)(F)F)c1)N1CCCc2ccccc21 [Example 1, (3,4-Dihydro-2H-quinolin-1-yl)-[2-(3-trifluoromethyl-phenoxy)-pyridin-3-yl]-methanone] | 0.396
17 | CC(C)CN1CCN(C(=O)c2cccnc2Oc2cc(Cl)ccc2Cl)c2ccccc21 [Example 137, [2-(2,5-Dichloro-phenoxy)-pyridin-3-yl]-(4-isobutyl-3,4-dihydro-2H-quinoxalin-1-yl)-methanone] | 0.201
18 | CC(C)N1CCN(C(=O)c2cccnc2Oc2cc(Cl)ccc2Cl)c2ccccc21 [Example 124, [2-(2,5-Dichloro-phenoxy)-pyridin-3-yl]-(4-isopropyl-3,4-dihydro-2H-quinoxalin-1-yl)-methanone] | 0.607
19 | Cc1cccc(Oc2ncccc2C(=O)N2CCCc3ccccc32)c1 [Example 8, (3,4-Dihydro-2H-quinolin-1-yl)-(2-m-tolyloxy-pyridin-3-yl)-methanone] | 0.644

The next molecules have a lower EC50 than those just listed; values first:

Row | EC50 [µM] | SMILES
20 | 0.173 | Cc1c(Cl)cccc1N(C)C(=O)c1cccnc1Oc1cc(Cl)ccc1Cl [Example 49, N-(3-Chloro-2-methyl-phenyl)-2-(2,5-dichloro-phenoxy)-N-methyl-nicotinamide]
21 | 0.153 | Cc1ccc(Cl)cc1Oc1ncccc1C(=O)N1CCCc2ccccc21 [Example 11, [2-(5-Chloro-2-methyl-phenoxy)-pyridin-3-yl]-(3,4-dihydro-2H-quinolin-1-yl)-methanone]
22 | 0.145 | O=C(c1cc(Cl)cnc1Oc1cc(Cl)ccc1Cl)N1CCCc2ccccc21 [Example 27, [5-Chloro-2-(2,5-dichloro-phenoxy)-pyridin-3-yl]-(3,4-dihydro-2H-quinolin-1-yl)-methanone]
23 | 0.138 | Cc1ccc2c(c1)CCCN2C(=O)c1cccnc1Oc1cc(Cl)ccc1Cl [Example 31, [2-(2,5-Dichloro-phenoxy)-pyridin-3-yl]-(6-methyl-3,4-dihydro-2H-quinolin-1-yl)-methanone]
24 | 0.127 | O=C(O)c1ccc(CCc2cc(Cl)c(Oc3ncccc3C(=O)N3CCN(C4CC4)c4ccccc43)cc2Cl)cc1Cl [Example 169, 2-Chloro-4-(2-{2,5-dichloro-4-[3-(4-cyclopropyl-3,4-dihydro-2H-quinoxaline-1-carbonyl)-pyridin-2-yloxy]-phenyl}-ethyl)-benzoic acid]
25 | 0.114 | O=C(O)CCCc1cc(Cl)c(Oc2ncccc2C(=O)N2CCN(C3CC3)c3ccccc32)cc1Cl [Example 176, 4-{2,5-Dichloro-4-[3-(4-cyclopropyl-3,4-dihydro-2H-quinoxaline-1-carbonyl)-pyridin-2-yloxy]-phenyl}-butyric acid]
26 | 0.102 | COc1cc(C(=O)O)ccc1CCc1cc(Cl)c(Oc2ncccc2C(=O)N2CCN(C3CC3)c3ccccc32)cc1Cl [Example 171, 4-(2-{2,5-Dichloro-4-[3-(4-cyclopropyl-3,4-dihydro-2H-quinoxaline-1-carbonyl)-pyridin-2-yloxy]-phenyl}-ethyl)-3-methoxy-benzoic acid]
27 | 0.096 | CN(CC(=O)O)C(=O)CCc1cc(Cl)c(Oc2ncccc2C(=O)N2CCN(C3CC3)c3ccccc32)cc1Cl [Example 178, [(b 3-{2,5-Dichloro-4-[3-(4-cyclopropyl-3,4-dihydro-2H-quinoxaline-1-carbonyl)-pyridin-2-yloxy]-phenyl}-propionyl)-methyl-amino]-acetic acid]
28 | 0.092 | O=C(c1ccncc1Oc1cc(Cl)ccc1Cl)N1CCOc2ccccc21 [Example 185, [3-(2,5-Dichloro-phenoxy)-pyridin-4-yl]-(2,3-dihydro-benzo[1,4]oxazin-4-yl)-methanone]
29 | 0.092 | CCc1ccccc1N(C)C(=O)c1cccnc1Oc1cc(Cl)ccc1Cl [Example 45, 2-(2,5-Dichloro-phenoxy)-N-(2-ethyl-phenyl)-N-methyl-nicotinamide]
30 | 0.053 | CCOC(=O)CN1CCN(C(=O)c2cc(F)cnc2Oc2cc(Cl)ccc2Cl)c2ccccc21 [Example 154, {4-[2-(2,5-Dichloro-phenoxy)-5-fluoro-pyridine-3-carbonyl]-3,4-dihydro-2H-quinoxalin-1-yl}-acetic acid ethyl ester]
31 | 0.036 | O=C(c1cccnc1Oc1cc(Cl)c(C#CCO)cc1Cl)N1CCN(C2CC2)c2ccccc21 [Example 164, (4-Cyclopropyl-3,4-dihydro-2H-quinoxalin-1-yl)-{2-[2,5-dichloro-4-(3-hydroxy-prop-1-ynyl)-phenoxy]-pyridin-3-yl}-methanone]
32 | 0.035 | O=C(c1cccnc1Oc1cc(Cl)ccc1Cl)N1CCN(CC2CC2)c2ccccc21 [Example 138, (4-Cyclopropylmethyl-3,4-dihydro-2H-quinoxalin-1-yl)-[2-(2,5-dichloro-phenoxy)-pyridin-3-yl]-methanone]
33 | 0.015 | O=C(c1ccncc1Oc1cc(Cl)ccc1Cl)N1CCCc2cc(F)ccc21 [Example 91, [3-(2,5-Dichloro-phenoxy)-pyridin-4-yl]-(6-fluoro-3,4-dihydro-2H-quinolin-1-yl)-methanone]

From US8309734B2 (Hoffmann-La Roche Inc., priority 2008, dated 2012)
